According to ChEMBL document CHEMBL1129184, “Synthesis of water-soluble prodrugs of the cytotoxic agent Combretastatin A4” (Bioorg Med Chem Lett, 1996):

Assays:
[1] = Percent of the mice tested that exhibited toxicity after a dose of 150 mg/kg; type: organism-based; set-up: dose 150 mg/kg; conditions: mouse, in vivo
[2] = Solubility was determined; type: physicochemical

SMILES | Activity [1] [%] | solubility [2] [µg/mL]
COc1ccc(/C=C\c2cc(OC)c(OC)c(OC)c2)cc1[O-].[K+] | 60 | –
COc1ccc(/C=C\c2cc(OC)c(OC)c(OC)c2)cc1O.N | – | ~2800
